System: medial meniscal tear-induced cartilage degeneration
Experiment: Rat medial meniscal tear model, knee histopathology after intra-articular dosing
Assay type: in vivo, Male Lewis rats
Details: IA 3 μg (each) Q4D days 4, 8, 12, 16, 20, 24; vs Q4D vehicle controls
Procedure: This model is performed by transection of the medial collateral ligament just below its attachment to the meniscus so that when the joint space opens, the meniscus is reflected toward the femur. The meniscus is cut at its narrowest point (away from the ossicles) taking care not to damage the tibial surface and making sure that the resulting transection produces separate, freely movable anterior and posterior meniscus halves.
Experimental Design: Animals were anesthetized with Isoflurane and the right knee area was prepared for surgery. A skin incision was made over the medial aspect of the knee and the medial collateral ligament was exposed by blunt dissection, and then transected. The medial meniscus was cut through the full thickness to simulate a complete tear. Skin and subcutis were closed with 4-0 Vicryl suture. Dosing by the intra-articular (IA) route began four days after surgery and continued as indicated below until day 24. Treatment groups were as follows: […]
All three sections of each knee were analyzed microscopically. In scoring the three sections, the worst-case scenario for the two halves on each slide was determined for general cartilage degeneration, proteoglycan loss, collagen damage, and osteophyte formation. […] When zones are scored individually, scores are assigned based on % area of the zone affected. […]

COc1ccc([C@@H]2Sc3ccccc3N(CCN(C)C)C(=O)[C@@H]2OC(C)=O)cc1 [Diltiazem, 5-[2-(dimethylamino)ethyl]-2-(4-methoxyphenyl)-4-oxo-2,3,4,5-tetrahydro-1,5-benzothiazepin-3-yl acetate]
decrease in the total joint score: 6%

— patent publication US12433899B2, “Therapeutics and method for treating osteoarthritis” (Calosyn Pharma Inc., priority 2021, dated 2025)
